Where “and” joins values, the source holds several entries; their conditions need not be identical. Equal entries are not always repeated.
How the values were obtained:
[1] = test system: lung slices obtained from ovalbumin-sensitized guinea pigs; experiment: Ovalbumin-induced airway constriction in lung slices from ovalbumin-sensitized guinea pigs; format: cell-based, guinea pig; details: Exp1-5
From the text: All curve fits were generated using the software program GraphPad Prism. Data are represented as mean ± SEM of 4–5 guinea pigs (see Table 2 for statistical analyses).
Outbred, male, specified pathogen-free Dunkin Hartley guinea pigs (Charles River Laboratory) weighing 200 to 400 g were used. The animals were housed in pairs under a 12-hour light/dark cycle in a temperature- and humidity-controlled room with food and tap water ad libitum. For studies in the guinea pig model of allergic asthma, animals were actively IgE-sensitized to ovalbumin by injecting a suspension containing 100 μg/mL ovalbumin and 100 mg/mL Al(OH)3 in saline. Each animal was injected with 1.0 mL of suspension: 0.5 mL was injected i.p. and 0.5 mL was divided over 7 s.c. sites close to lymph nodes in the neck, paws, and lumbar regions ([24]). Animals were euthanized at least 4 weeks after sensitization.
Precision-cut lung slices were prepared as described previously ([61], [62]). A 3% solution of low melting-point agarose (Gerbu Biotechnik GmbH) in ultrapure water was prepared by heating it a microwave until fully dissolved. […] After filling, the lungs were covered with ice for 30 minutes to solidify the agarose for slicing. […] Lung slices were cut at a thickness of 500 μm and washed several times with slicing buffer to remove debris and washout the isoproterenol. Slices were incubated overnight in a 60 mm dish in sterile incubation buffer: MEM composed of lung slice buffer supplemented with 0.5 mM sodium pyruvate, 1 mM glutamine (Gibco), MEM-amino acids mixture (1:50), MEM-vitamins mixture (1:100; Gibco), and penicillin-streptomycin (1:100; Gibco), pH = 7.2, at 37°C in a CO2- and humidity-controlled atmosphere.
After washing the slices in medium, individual guinea pig lung slices were mechanically maintained with a Teflon ring with an inner diameter of 7 mm and covered with 1 mL of incubation buffer. […] Image acquisition software (NIS-Elements, Nikon) was used to quantify airway luminal area. Images of the airways were acquired every 2 seconds during the whole course of the experiment, starting 2 minutes before the addition of any agent to allow for baseline measurements of the airway caliber. For each methacholine or ovalbumin concentration, the maximal airway constriction was expressed as percentage of the initial (baseline) airway luminal area and plotted against that concentration.

human lung slices = experiment: Methacholine-induced airway constriction in human lung slices; format: cell-based; details: for MCh-induced airway constriction response (Figure 7): donor 1-4
From the text: All curve fits were generated using the software program GraphPad Prism. Data are represented as mean ± SEM of 4 human donors (see Table 3 for statistical analyses).
Precision-cut human lung slices were purchased from AnaBios and stored in a liquid nitrogen tank. Lung tissue was obtained postmortem and consent for research was obtained by AnaBios for all donors. Characteristics of the donors of the lung tissue are shown in Supplemental Table 2. Slices were rapidly thawed following instructions from AnaBios.
After washing, individual human lung slices were mechanically maintained with a Teflon ring with an inner diameter of 7 mm and covered with 1 mL of incubation buffer. […] Image acquisition software (NIS-Elements, Nikon) was used to quantify airway luminal area. […] Airway constriction in response to each methacholine concentration was expressed as percentage of the initial airway luminal area.

## CC(Cc1ccc(O)cc1)NCC(O)c1cc(O)cc(O)c1 (stereo not drawn) [Fenoterol, fenoterol]
[1]; 0.1 µM Fenoterol, [OVA] 100000 ng/ml
  OVA-induced airway constriction response (Figure 6): 0.0
[1]; 0.1 µM Fenoterol, [OVA] 1000000 ng/ml
  OVA-induced airway constriction response (Figure 6): 0.0
[1]; 1 µM Fenoterol, [OVA] 0.001 ng/ml
  OVA-induced airway constriction response (Figure 6): 103.2 and 100 and 98.0
[1]; 1 µM Fenoterol, [OVA] 0.01 ng/ml
  OVA-induced airway constriction response (Figure 6): 103.0 and 100.0 and 95.8
[1]; 1 µM Fenoterol, [OVA] 0.1 ng/ml
  OVA-induced airway constriction response (Figure 6): 97.3 and 96.9 and 98.7 and 100
[1]; 1 µM Fenoterol, [OVA] 1 ng/ml
  OVA-induced airway constriction response (Figure 6): 103.2 and 98.4 and 95.2 and 100.1 and 99.5
[1]; 1 µM Fenoterol, [OVA] 10 ng/ml
  OVA-induced airway constriction response (Figure 6): 101.0 and 98.4 and 92.9 and 100.7 and 99.7
[1]; 1 µM Fenoterol, [OVA] 100 ng/ml
  OVA-induced airway constriction response (Figure 6): 98.8 and 99.1 and 98.3 and 105.5 and 98.7
[1]; 1 µM Fenoterol, [OVA] 1000 ng/ml
  OVA-induced airway constriction response (Figure 6): 95.3 and 96.8 and 97.2 and 98.0
[1]; 1 µM Fenoterol, [OVA] 10000 ng/ml
  OVA-induced airway constriction response (Figure 6): 91.4 and 95.6 and 97.2 and 105.0 and 93.6
[1]; 1 µM Fenoterol, [OVA] 100000 ng/ml
  OVA-induced airway constriction response (Figure 6): 91.8 and 92.1 and 100.5 and 99.1 and 87.0
[1]; 1 µM Fenoterol, [OVA] 1000000 ng/ml
  OVA-induced airway constriction response (Figure 6): 92.1 and 93.3 and 97.5 and 83.9
Human lung slices; 1 µM Fenoterol, -Log [MCh] 3.5
  MCh-induced airway constriction response (Figure 7): 66.3 and 38.1 and 61.4 and 57.2
Human lung slices; 1 µM Fenoterol, -Log [MCh] 4
  MCh-induced airway constriction response (Figure 7): 66.7 and 40.2 and 56.4 and 59
Human lung slices; 1 µM Fenoterol, -Log [MCh] 4.5
  MCh-induced airway constriction response (Figure 7): 64.6 and 41.7 and 58.9 and 57.8
Human lung slices; 1 µM Fenoterol, -Log [MCh] 5
  MCh-induced airway constriction response (Figure 7): 64.0 and 44.2 and 53.4 and 60.0
Human lung slices; 1 µM Fenoterol, -Log [MCh] 5.5
  MCh-induced airway constriction response (Figure 7): 70.0 and 50.2 and 57.7 and 59.1
Human lung slices; 1 µM Fenoterol, -Log [MCh] 6
  MCh-induced airway constriction response (Figure 7): 78.6 and 52.9 and 60.3 and 62.9
Human lung slices; 1 µM Fenoterol, -Log [MCh] 6.5
  MCh-induced airway constriction response (Figure 7): 78.2 and 58.1 and 66.2 and 68.4
Human lung slices; 1 µM Fenoterol, -Log [MCh] 7
  MCh-induced airway constriction response (Figure 7): 83.5 and 66.4 and 73.5 and 75.0
Human lung slices; 1 µM Fenoterol, -Log [MCh] 7.5
  MCh-induced airway constriction response (Figure 7): 90.1 and 68.0 and 78.3 and 79.7
Human lung slices; 1 µM Fenoterol, -Log [MCh] 8
  MCh-induced airway constriction response (Figure 7): 97.8 and 78.9 and 83.6 and 92.0
Human lung slices; 1 µM Fenoterol, -Log [MCh] 8.5
  MCh-induced airway constriction response (Figure 7): 89.0 and 94.8 and 96.5
Human lung slices; 1 µM Fenoterol, -Log [MCh] 9
  MCh-induced airway constriction response (Figure 7): 100.2 and 93.5 and 97.1 and 98.8
Human lung slices; 1 μM fenoterol
  Airway luminal area at the highest methacholine concentration: 55.7% ± 6.2%
Human lung slices; 10 µM Fenoterol, -Log [MCh] 3.5
  MCh-induced airway constriction response (Figure 7): 79.8 and 72.5 and 79.3 and 86.4
Human lung slices; 10 µM Fenoterol, -Log [MCh] 4
  MCh-induced airway constriction response (Figure 7): 80.3 and 75.3 and 80 and 86.3
Human lung slices; 10 µM Fenoterol, -Log [MCh] 4.5
  MCh-induced airway constriction response (Figure 7): 83.8 and 75.6 and 80.1 and 86.9
Human lung slices; 10 µM Fenoterol, -Log [MCh] 5
  MCh-induced airway constriction response (Figure 7): 91.0 and 83.4 and 80.2 and 86.4
Human lung slices; 10 µM Fenoterol, -Log [MCh] 5.5
  MCh-induced airway constriction response (Figure 7): 98.1 and 86.0 and 82.0 and 87.9
Human lung slices; 10 µM Fenoterol, -Log [MCh] 6
  MCh-induced airway constriction response (Figure 7): 99.0 and 86.3 and 86.9 and 91.9
Human lung slices; 10 µM Fenoterol, -Log [MCh] 6.5
  MCh-induced airway constriction response (Figure 7): 99.5 and 90.2 and 90.4 and 97.1
Human lung slices; 10 µM Fenoterol, -Log [MCh] 7
  MCh-induced airway constriction response (Figure 7): 99.7 and 93.0 and 91.3 and 96.6
Human lung slices; 10 µM Fenoterol, -Log [MCh] 7.5
  MCh-induced airway constriction response (Figure 7): 94.8 and 96.0 and 99.4
Human lung slices; 10 µM Fenoterol, -Log [MCh] 8
  MCh-induced airway constriction response (Figure 7): 101.4 and 95.9 and 99.4 and 100.7
Human lung slices; 10 µM Fenoterol, -Log [MCh] 8.5
  MCh-induced airway constriction response (Figure 7): 103.2 and 98.6 and 100.6 and 95.6
Human lung slices; 10 µM Fenoterol, -Log [MCh] 9
  MCh-induced airway constriction response (Figure 7): 100.3 and 99.4 and 101.1 and 99.5
Human lung slices; 10 μM fenoterol
  Airway luminal area at the highest methacholine concentration: 79.5% ± 2.8%
Human lung slices; Homo sapiens, read-out: MCh pD2, 10 μM Fenoterol (converted)
  EC50: 1700 nM

From article PMC10503797, “Allosteric modulator potentiates β2AR agonist–promoted bronchoprotection in asthma models” (The Journal of Clinical Investigation, 2023)
